# Patent US6191126A, “Topical use of κ opioid agonists to treat ocular pain” (Alcon Laboratories, Inc., priority 1999, dated 2001)
# Assays:
# [1] = test system: formalin-induced ocular pain (blinking); assay: formalin-induced model of ocular pain in the rat (inhibition of blinking after topical ocular dosing); details: in vivo
# [2] = test system: mu opioid receptor (vs delta and kappa receptors); details: Goodman and Gilman, 8th Edition; cited from earlier work
SMILES,% Inhibition (of blink count in first minute vs vehicle) [1],times greater affinity for the mu receptor than for the delta and kappa receptors [2]
COC(=O)N1CCN(C(=O)Cc2ccc(Cl)c(Cl)c2)C(CN2CCCC2)C1 (racemic) [GR 89696],98,
CN1CC[C@]23c4c5ccc(O)c4O[C@H]2[C@@H](O)C=C[C@H]3[C@H]1C5 [Morphine],8,ten
